Experimental data as given in patent US11254668B2, “Pyrazolo[1,5-A]pyrazin-4-yl and related derivatives” (Pfizer Inc., priority 2017, dated 2022).

Key:
Assay type in all cases: biochemical
[1] = target: TYK2 (Homo sapiens (Human), UniProt P29597); assay: JAK Caliper Enzyme Assay at 1 mM ATP, TYK2
Procedure, shortened: (§1)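 Human recombinant kinase domain + fluorescently labelled synthetic peptide, 1 mM ATP, RT; enzyme level/time set for 20–30% phosphorylation. EDTA stop. LabChip separation, peak-height % conversion, % effect vs plate controls.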

[2] = target: JAK2 (Homo sapiens (Human), UniProt O60674); assay: JAK Caliper Enzyme Assay at 1 mM ATP, JAK2
Procedure, shortened: as §1

[3] = target: JAK1 (Homo sapiens (Human), UniProt P23458); assay: JAK Caliper Enzyme Assay at 1 mM ATP, JAK1
Procedure, shortened: (§2)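 IC50 (nM) derived from percent conversion of fluorescently labelled peptide, measured by Caliper LabChip mobility-shift separation after EDTA stop. Each JAK family kinase domain (human, recombinant) run at 1 mM ATP and room temperature, conditions set to 20-30% product; DMSO wells define uninhibited baseline.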

[4] = target: JAK3 (Homo sapiens (Human), UniProt P52333); assay: JAK Caliper Enzyme Assay at 1 mM ATP, JAK3
Procedure, shortened: as §2

JAK3, sequence (P52333 822-1111): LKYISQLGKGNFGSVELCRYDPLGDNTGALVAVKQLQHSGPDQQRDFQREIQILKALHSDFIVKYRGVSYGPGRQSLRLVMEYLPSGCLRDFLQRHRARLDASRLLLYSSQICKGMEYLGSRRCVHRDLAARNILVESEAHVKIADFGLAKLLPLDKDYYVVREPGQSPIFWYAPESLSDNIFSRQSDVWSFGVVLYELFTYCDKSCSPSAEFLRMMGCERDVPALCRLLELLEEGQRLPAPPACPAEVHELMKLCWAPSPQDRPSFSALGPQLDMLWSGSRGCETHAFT
JAK1, sequence (P23458 875-1153): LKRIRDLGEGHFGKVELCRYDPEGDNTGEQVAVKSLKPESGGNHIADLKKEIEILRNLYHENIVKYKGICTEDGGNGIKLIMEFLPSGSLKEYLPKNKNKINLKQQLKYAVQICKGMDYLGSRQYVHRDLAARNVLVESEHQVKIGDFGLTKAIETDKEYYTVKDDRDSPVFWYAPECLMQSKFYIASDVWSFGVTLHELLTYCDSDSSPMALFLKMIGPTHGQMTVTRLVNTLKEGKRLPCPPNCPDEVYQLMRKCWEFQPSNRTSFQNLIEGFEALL
TYK2, sequence (P29597 897-1176): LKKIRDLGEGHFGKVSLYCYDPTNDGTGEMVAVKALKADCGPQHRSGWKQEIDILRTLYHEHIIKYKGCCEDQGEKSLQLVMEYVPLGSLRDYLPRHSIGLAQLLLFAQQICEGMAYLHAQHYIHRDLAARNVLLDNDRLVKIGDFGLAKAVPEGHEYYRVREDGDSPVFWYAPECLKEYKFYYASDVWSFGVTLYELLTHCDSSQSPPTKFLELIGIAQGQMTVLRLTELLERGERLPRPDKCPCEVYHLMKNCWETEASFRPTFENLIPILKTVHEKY
JAK2, sequence (O60674 849-1124): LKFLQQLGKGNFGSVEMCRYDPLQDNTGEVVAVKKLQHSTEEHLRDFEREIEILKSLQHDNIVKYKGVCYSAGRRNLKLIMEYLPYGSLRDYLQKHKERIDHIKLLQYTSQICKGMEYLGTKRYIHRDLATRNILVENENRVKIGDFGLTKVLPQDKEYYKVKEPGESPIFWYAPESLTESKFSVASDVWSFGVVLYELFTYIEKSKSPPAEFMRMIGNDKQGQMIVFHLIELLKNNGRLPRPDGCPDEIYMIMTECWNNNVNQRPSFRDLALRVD

| SMILES | IC50 [1] | IC50 [2] | IC50 [3] | IC50 [4] |
| --- | --- | --- | --- | --- |
| N#CC[C@]1(n2ccc(-c3nc(-c4ccnc(C(N)=O)n4)cc4ncccc34)n2)C[C@H](C#N)C1 [Example 244, 4-(5-{1-[cis-3-cyano-1-(cyanomethyl)cyclobutyl]-1H-pyrazol-3-yl}-1,6-naphthyridin-7-yl)pyrimidine-2-carboxamide] | 424 nM | > 10000 nM | > 10000 nM | > 10000 nM |
| CS(=O)(=O)N1CC(CC#N)(n2ccc(-c3nc(-c4ccc(=O)[nH]c4)cc4ncccc34)n2)C1 [Example 245, [1-(methylsulfonyl)-3-{3-[7-(6-oxo-1,6-dihydropyridin-3-yl)-1,6-naphthyridin-5-yl]-1H-pyrazol-1-yl}azetidin-3-yl]acetonitrile] | 11 nM | 131 nM | 220 nM | > 10000 nM |
| N#CCC1(n2ccc(-c3nc(-c4ccc(=O)[nH]c4)cc4ncccc34)n2)CN(S(=O)(=O)C2CC2)C1 [Example 246, [1-(cyclopropylsulfonyl)-3-{3-[7-(6-oxo-1,6-dihydropyridin-3-yl)-1,6-naphthyridin-5-yl]-1H-pyrazol-1-yl}azetidin-3-yl]acetonitrile] | 32 nM | 971 nM | 554 nM | > 10000 nM |
| CO[C@H]1C[C@@](CC#N)(n2ccc(-c3nc(-c4ccc(=O)[nH]c4)cc4ncccc34)n2)C1 [Example 247, (cis-3-methoxy-1-{3-[7-(6-oxo-1,6-dihydropyridin-3-yl)-1,6-naphthyridin-5-yl]-1H-pyrazol-1-yl}cyclobutyl)acetonitrile] | 49 nM | 778 nM | 1340 nM | > 10000 nM |
| Cn1cc(-c2cc3ncccc3c(-c3ccn(C4(CC#N)CN(S(C)(=O)=O)C4)n3)n2)ccc1=O [Example 248, [3-{3-[7-(1-methyl-6-oxo-1,6-dihydropyridin-3-yl)-1,6-naphthyridin-5-yl]-1H-pyrazol-1-yl}-1-(methylsulfonyl)azetidin-3-yl]acetonitrile] | 96 nM | 532 nM | 994 nM | > 10000 nM |
| Cn1cc(-c2cc3ncccc3c(-c3ccn(C4(CC#N)CN(CC(F)(F)F)C4)n3)n2)ccc1=O [Example 249, [3-{3-[7-(1-methyl-6-oxo-1,6-dihydropyridin-3-yl)-1,6-naphthyridin-5-yl]-1H-pyrazol-1-yl}-1-(2,2,2-trifluoroethyl)azetidin-3-yl]acetonitrile] | 178 nM | 1150 nM | 1080 nM | > 10000 nM |
| Cc1cc(-c2cc3ncccc3c(-c3ccn(C4(CC#N)CN(CC(F)(F)F)C4)n3)n2)c[nH]c1=O [Example 250, [3-{3-[7-(5-methyl-6-oxo-1,6-dihydropyridin-3-yl)-1,6-naphthyridin-5-yl]-1H-pyrazol-1-yl}-1-(2,2,2-trifluoroethyl)azetidin-3-yl]acetonitrile] | 55 nM | 821 nM | 1260 nM | > 10000 nM |
| CCn1cc(-c2cc3ncccc3c(-c3ccn(C4(CC#N)CN(S(C)(=O)=O)C4)n3)n2)ccc1=O [Example 251, [3-{3-[7-(1-ethyl-6-oxo-1,6-dihydropyridin-3-yl)-1,6-naphthyridin-5-yl]-1H-pyrazol-1-yl}-1-(methylsulfonyl)azetidin-3-yl]acetonitrile] | 48 nM | 229 nM | 541 nM | > 10000 nM |
| CS(=O)(=O)N1CC(CC#N)(n2ccc(-c3nc(-c4ccccc4O)cc4ncccc34)n2)C1 [Example 252, [3-{3-[7-(2-hydroxyphenyl)-1,6-naphthyridin-5-yl]-1H-pyrazol-1-yl}-1-(methylsulfonyl)azetidin-3-yl]acetonitrile] | 15 nM | 118 nM | 663 nM | > 10000 nM |
| CS(=O)(=O)N1CC(CC#N)(n2ccc(-c3nc(-c4ccc(O)cc4)cc4ncccc34)n2)C1 [Example 254, [3-{3-[7-(4-hydroxyphenyl)-1,6-naphthyridin-5-yl]-1H-pyrazol-1-yl}-1-(methylsulfonyl)azetidin-3-yl]acetonitrile] | 11 nM | 205 nM | 237 nM | > 10000 nM |
| CS(=O)(=O)N1CC(CC#N)(n2ccc(-c3nc(-c4ccccc4CO)cc4ncccc34)n2)C1 [Example 255, [3-(3-{7-[2-(hydroxymethyl)phenyl]-1,6-naphthyridin-5-yl}-1H-pyrazol-1-yl)-1-(methylsulfonyl)azetidin-3-yl]acetonitrile] | 3170 nM | > 10000 nM | > 10000 nM | > 10000 nM |
| CS(=O)(=O)N1CC(CC#N)(n2ccc(-c3nc(-c4ccccc4F)cc4ncccc34)n2)C1 [Example 258, [3-{3-[7-(2-fluorophenyl)-1,6-naphthyridin-5-yl]-1H-pyrazol-1-yl}-1-(methylsulfonyl)azetidin-3-yl]acetonitrile] | 255 nM | > 10000 nM | > 10000 nM | > 10000 nM |
| CS(=O)(=O)N1CC(CC#N)(n2ccc(-c3nc(-c4ccc(F)cc4O)cc4ncccc34)n2)C1 [Example 259, [3-{3-[7-(4-fluoro-2-hydroxyphenyl)-1,6-naphthyridin-5-yl]-1H-pyrazol-1-yl}-1-(methylsulfonyl)azetidin-3-yl]acetonitrile] | 19 nM | 566 nM | > 10000 nM | > 10000 nM |
| CS(=O)(=O)N1CC(CC#N)(n2ccc(-c3nc(-c4ccc(O)c(F)c4)cc4ncccc34)n2)C1 [Example 260, [3-{3-[7-(3-fluoro-4-hydroxyphenyl)-1,6-naphthyridin-5-yl]-1H-pyrazol-1-yl}-1-(methylsulfonyl)azetidin-3-yl]acetonitrile] | 27 nM | 325 nM | 198 nM | > 10000 nM |
| CS(=O)(=O)N1CC(CC#N)(n2ccc(-c3nc(-c4cc(O)cc(F)c4)cc4ncccc34)n2)C1 [Example 261, [3-{3-[7-(3-fluoro-5-hydroxyphenyl)-1,6-naphthyridin-5-yl]-1H-pyrazol-1-yl}-1-(methylsulfonyl)azetidin-3-yl]acetonitrile] | 118 nM | > 10000 nM | > 10000 nM | > 10000 nM |
| CS(=O)(=O)N1CC(CC#N)(n2ccc(-c3nc(-c4cc(F)ccc4O)cc4ncccc34)n2)C1 [Example 262, [3-{3-[7-(5-fluoro-2-hydroxyphenyl)-1,6-naphthyridin-5-yl]-1H-pyrazol-1-yl}-1-(methylsulfonyl)azetidin-3-yl]acetonitrile] | 242 nM | > 10000 nM | > 10000 nM | > 10000 nM |
| CCN1CC(CC#N)(n2ccc(-c3nc(C4=CCOCC4)cc4ncccc34)n2)C1 [Example 263, (3-{3-[7-(3,6-dihydro-2H-pyran-4-yl)-1,6-naphthyridin-5-yl]-1H-pyrazol-1-yl}-1-ethylazetidin-3-yl)acetonitrile] | 1390 nM | 9570 nM | > 10000 nM | > 10000 nM |
| CCN1CC(CC#N)(n2ccc(-c3nc(N4CCOCC4)cc4ncccc34)n2)C1 [Example 264, (1-ethyl-3-{3-[7-(morpholin-4-yl)-1,6-naphthyridin-5-yl]-1H-pyrazol-1-yl}azetidin-3-yl)acetonitrile] | 6990 nM | > 10000 nM | > 10000 nM | > 10000 nM |
